# Laboratory results from patent publication US5814646A, “Inhibitors of amyloid beta-protein production” (Eli Lilly and Company, priority 1995, dated 1998).
# System: Aβ production in 293 751 SWE and CHO 751 SWE cells (transfected with APP-751 Swedish mutation)
# Experiment: Aβ production inhibition activity in cells (Aβ ELISA of conditioned media, normalized for cytotoxicity by MTT)
# Type: cell-based
# Conditions: 2.5 μg/ml
# Experimental: Two cell lines (human kidney cell line 293 and Chinese hamster ovary cell line CHO) were stably transfected with the gene for APP-751 containing the double mutation Lys651 -Met652 to Asn651 -Leu652 (APP-751 numbering) commonly called the Swedish mutation using the method described in Citron et al., (1992) Nature 360:672-674. The transfected cell lines were designated as 293 751 SWE and CHO 751 SWE, and were plated in Corning 96 well plates at 2.5×10^4 or 1×10^4 cells per well respectively in Dulbecco's minimal essential media plus 10% fetal bovine serum. Following overnight incubation at 37° C. in an incubator equilibrated with 10% carbon dioxide (CO2), the media were removed and replaced with 200 μL per well of media containing a test compound. After a two hour pretreatment period, the media were again removed and replaced with fresh media containing the test compound and the cells were incubated for an additional two hours.
# Test compound stocks were prepared in DMSO such that at the final concentration used in the treatment, the concentration of DMSO did no exceed 0.5%. After treatment, plates were centrifuged in a Beckman GPR at 1200 rpm for five minutes at room temperature to pellet cellular debris from the conditioned media. From each well, 100 μL of conditioned media were transferred into an ELISA plate precoated with antibody 266 against βAP-13-28 (Seubert et al., supra.) and stored at 4° C. overnight. An ELISA assay employing labeled antibody 6C6 (against βAP-1-16) was run the next day to measure the amount of Aβ produced.
# Cytotoxic effects of the test compounds were measured by a modification of the method of Hansen et al., (1989) J. Immun. Meth. 119:203-210. To the cells remaining in the tissue culture plate, was added 25 μL of a 3, (4,5-dimethylthiazol-2-yl)2,5-diphenyltetrazolium bromide (MTT) stock solution (5 mg/mL) to a final concentration of […]. Cells were incubated at 37° C. for one hour, and cellular activity was stopped by the addition of an equal volume of MTT lysis buffer (20% w/v sodium dodecylsulfate in 50% DMF, pH 4.7). Complete extraction was achieved by overnight shaking at room temperature. The difference in the OD562 nm and the OD650 nm was measured in a Molecular Devices UVmax microplate reader as an indicator of the cellular viability.
# The results of the Aβ ELISA were fit to a standard curve and expressed as ng/mL Aβ peptide. In order to normalize for cytotoxicity, these Aβ results were divided by the MTT results and expressed as a percentage of the results from a drug -free control.
# The test compounds were assayed for Aβ production inhibition activity in cells at […] using the test. The results presented in Table 1 are the mean and standard deviation of at least six replicate assays. IC50 means the concentration of test compound in micromoles/liter required to inhibit Aβ production by 50%.
row,Structure (SMILES),"Aβ Production Inhibition Activity, % inhibition @ 2.5 μg/ml"
1,CC1(C)CC(C(=O)Nc2ccc(Cl)c(Cl)c2)CC(C)(C)N1 [Compound 231],40-51%

# Same assay, conditions: 5 μg/ml
row,Structure (SMILES),inhibition at 5 µg/mL [%]
1,CC(c1cccc(NC(=O)c2ccc(C(C)(C)C)cc2)c1)N(O)C(=S)NCc1ccccc1 (centres unmarked) [Compound 99],43
2,Cc1ccc(C)c(COc2ccc(CN(O)C(=S)NCc3ccccc3)cc2)c1 [Compound 58],32
3,Cc1cccc(CNC(=S)N(O)C(C)c2cccc(NC(=O)c3ccc(C(C)(C)C)cc3)c2)c1 (centres unmarked) [Compound 100],1
4,CCCCCCNC(=S)N(O)Cc1cccc(OCc2ccc(C(C)(C)C)cc2)c1 [Compound 50],25
5,Cc1cccc(CNC(=S)N(O)Cc2cccc(OCc3ccc(C(C)(C)C)cc3)c2)c1 [Compound 48],29
6,CCCCCCNC(=S)N(O)Cc1ccc(-c2ccccc2)cc1 [Compound 78],24
7,ON(Cc1ccc(OCc2ccc(F)c(F)c2)cc1)C(=S)NCc1ccccc1 [Compound 56],28

# Same assay, conditions: 10 μg/ml, % of drug-free control, normalized to MTT
Structure (SMILES),inhibition at 10 µg/mL [%],"Aβ Production Inhibition Activity, % inhibition at 10 μg/ml [%]"
CCCc1cc(C(C)(C)C)ccc1Oc1ccc(NC(=S)NCc2cccc(C)c2)cc1 [Compound 194],31,
CC(C)(C)c1cccc(Oc2ccc(NC(=S)Nc3ccccc3C(F)(F)F)cc2)c1 [Compound 189],37,
CCCc1cc(C(C)(C)C)ccc1Oc1ccc(NC(=S)Nc2ccc(C)c(C)c2)cc1 [Compound 196],44,
ON(Cc1ccc(OCc2c(Cl)cccc2Cl)cc1)C(=S)NCc1ccccc1 [Compound 64],18,
Cc1cccc(CNC(=S)N(O)Cc2ccc(-c3ccc(C(C)(C)C)cc3)cc2)c1 [Compound 82],30,
ON(Cc1ccc(-c2ccccc2)cc1)C(=S)NCc1ccc(Cl)c(Cl)c1 [Compound 76],13,
CNC(=O)Nc1nnc(Br)s1 [Compound 253],2,
CSc1ccc(NC(=O)Nc2cccc(Cl)c2Cl)cc1 [Compound 158],51,
CC(C)(C)c1ccccc1Oc1ccc(NC(=S)Nc2ccc(Cl)c(C(F)(F)F)c2)cc1 [Compound 174],66,
CCCCCCNC(=S)N(O)C(CCCCCC)c1cccc(Oc2ccc(C(C)(C)C)cc2)c1 (centres unmarked) [Compound 37],0,
O=C(Nc1ccc(Cl)c(Cl)c1)N1CCCCC1 [Compound 229],,8
CCCCCCNC(=S)N(Cc1cccc(Oc2ccc(C(C)(C)C)cc2)c1)OC [Compound 43],16,
CCCCCCNC(=S)N(O)Cc1cccc(OCc2ccc(C(=O)CC)c(O)c2CCC)c1 [Compound 70],37,
CC(c1cccc(Oc2ccc(C(C)(C)C)cc2)c1)N(O)C(=S)NCc1ccc2c(c1)OCO2 (centres unmarked) [Compound 15],28,
CSc1ccc(NC(=O)Nc2ccc(Cl)cc2Cl)cc1 [Compound 159],4,
O=C(Nc1ccc(Cl)c(Cl)c1)c1ccccn1 [Compound 227],,32
CC(C)(C)c1ccc(Oc2ccccc2NC(=S)NCc2ccccc2)cc1 [Compound 181],52,
CCCCCCNC(=S)N(O)Cc1ccc(-c2ccc(C(C)(C)C)cc2)cc1 [Compound 80],11,
Cc1ccc(CNC(=S)Nc2ccccc2Oc2ccc(C(C)(C)C)cc2)cc1C [Compound 184],36,
CSc1ccc(NC(=O)Nc2cc(Cl)c(Cl)cc2C)cc1 [Compound 160],48,
Cc1cccc(CNC(=S)N(O)Cc2ccc(OCc3c(Cl)cccc3Cl)cc2)c1 [Compound 65],7,
Cc1nnc(NC(=O)Nc2cccc(Cl)c2)s1 [Compound 248],47,
COC(=O)c1ccc(NC(=O)Nc2ccc(Cl)c(C(F)(F)F)c2)cc1OC [Compound 165],42,

# Same assay, conditions: 2 h pretreatment + 2 h incubation
row,Structure (SMILES),IC50 [µM]
1,CC(c1cccc(Oc2ccc(C(C)(C)C)cc2)c1)N(O)C(=S)NCc1ccc(F)cc1 (centres unmarked) [Compound 4],11.1
2,CC(C)(C)c1ccc(Oc2ccc(NC(=S)NCc3ccc(Cl)c(Cl)c3)cc2)cc1 [Compound 133],6.5
3,CC(c1cccc(Oc2ccc(C(C)(C)C)cc2)c1)N(O)C(=S)Nc1cccc2ccccc12 (centres unmarked) [Compound 12],> 20
4,CC(C)(C)c1ccc(Oc2ccc(NC(=S)NCc3ccccc3)cc2)cc1 [Compound 115],16.4
5,CC(C)(C)c1ccc(Oc2ccc(NC(=S)NCc3ccc(F)cc3F)cc2)cc1 [Compound 128],7.3
6,CC(C)(C)c1noc(C(=O)Nc2ccc(Cl)c(Cl)c2)n1 [Compound 246],5.8
7,"O=C(Nc1ccc(Cl)c(Cl)c1)Nc1nncs1 [Compound 235, 1-1,3,4-thiadiazol-2-yl-3-(3,4-dichlorophenyl)urea]",10
8,COc1ccc(CNC(=S)Nc2ccc(Oc3ccc(C(C)(C)C)cc3)cc2)cc1 [Compound 111],8.3
9,O=C(Nc1ccccc1)Nc1ccc(Cl)c(Cl)c1 [Compound 152],11.4
10,O=C(Nc1ccc(Cl)c(Cl)c1)Nc1ccccc1Cl [Compound 151],10.1
11,CC(C)(C)c1ccc(Oc2ccc(NC(=S)NCc3cccc(Cl)c3)cc2)cc1 [Compound 105],9.4
12,FC(F)(F)c1cccc(NC(=S)Nc2ccc(Cl)c(Cl)c2)c1 [Compound 147],4.7
13,CCCCc1ccc(Oc2cccc(C(C)N(O)C(=S)NCc3ccccc3)c2)cc1 (centres unmarked) [Compound 45],9.2
14,CC(C)(C)c1cccc(Oc2cccc(CN(O)C(=S)NCc3ccccc3)c2)c1 [Compound 187],12.1
15,CC(C)(C)c1ccc(Sc2ccc(CN(O)C(=S)NCc3ccccc3)cc2)cc1 [Compound 88],7.5
16,CCCc1cc(C(C)(C)C)ccc1Oc1cccc(CN(O)C(=S)NCc2ccccc2)c1 [Compound 101],4.5
17,CC(C)(C)OC(=O)N1CCCC(CNC(=S)Nc2ccc(Oc3ccc(C(C)(C)C)cc3)cc2)C1 (centres unmarked) [Compound 125],9.3
18,CC(C)(C)c1ccc(SCc2ccc(CN(O)C(=S)Nc3ccc(Cl)c(C(F)(F)F)c3)cc2)cc1 [Compound 95],4.6
19,CCCCCCNC(=S)N(O)Cc1ccc(Sc2ccc(C(C)(C)C)cc2)cc1 [Compound 89],5.3

row,Structure (SMILES),IC50 [µM]
1,CC(C)(C)c1cccc(Oc2cccc(NC(=S)Nc3ccc(Cl)c(C(F)(F)F)c3)c2)c1 [Compound 172],3.8
2,COC(=O)c1sc2ccccc2c1C(=O)Nc1ccc(Cl)c(Cl)c1 [Compound 233],15.2
3,CCCCCCNC(=S)Nc1ccc(Oc2ccc(C(C)(C)C)cc2)cc1 [Compound 135],10.6
4,CSc1ccc(NC(=O)Nc2cccc(Cl)c2)cc1Br [Compound 162],5.7
5,CC(C)(C)c1ccc(Oc2ccccc2NC(=S)Nc2ccc(Cl)c(C(F)(F)F)c2)cc1 [Compound 170],4.4
6,CCCCCCNC(=S)N(O)Cc1ccccc1Oc1ccc(C(C)(C)C)cc1 [Compound 182],34
7,S=C(Nc1ccc(Cl)c(Cl)c1)Nc1ccc(Cl)c(Cl)c1 [Compound 153],1.7
8,Cc1cc2nc(NC(=O)Nc3ccc(Cl)c(Cl)c3)[nH]c2cc1C [Compound 143],14.9
9,CCCCOc1ccc(NC(=S)N(O)C(CC)c2cccc(Oc3ccc(C(C)(C)C)cc3)c2)cc1 (centres unmarked) [Compound 25],16
10,CCCCCCNC(=S)N(O)Cc1ccc(OCc2ccc(C(C)=O)c(O)c2CCC)cc1 [Compound 68],19.7
11,CC(C)(C)c1ccc(Sc2cccc(CN(O)C(=S)NCc3ccccc3)c2)cc1 [Compound 86],5.9
12,O=C(Nc1ccc(Cl)c(Cl)c1)Nc1nc2ccccc2s1 [Compound 137],10.3
13,O=C(Nc1ccc(Cl)c(Cl)c1)c1nccs1 [Compound 243],19.4
14,CC(C)(C)c1cccc(Oc2ccc(NC(=S)Nc3cccc(C(F)(F)F)c3)cc2)c1 [Compound 176],4.6
15,COc1cccc(CNC(=S)Nc2ccc(Oc3ccc(C(C)(C)C)cc3)cc2)c1 [Compound 110],21.2
16,CC(C)(C)c1ccc(Oc2ccc(NC(=S)NCc3ccc(Br)cc3)cc2)cc1 [Compound 108],8.9
17,CC(C)(C)c1ccc(Oc2ccc(NC(=S)NCc3ccncc3)cc2)cc1 [Compound 122],23.5
18,CSc1ccc(NC(=O)Nc2ccc(Cl)c(Cl)c2)cc1 [Compound 154],8.6
